These results are taken from patent US20120225909A1, “INDAZOLE ANALOG” (priority 2009, published 2012).

Assay [1] has as its target T1, human α1A-adrenergic receptor (Homo sapiens, UniProt P35348).
T1 sequence (P35348 1-466): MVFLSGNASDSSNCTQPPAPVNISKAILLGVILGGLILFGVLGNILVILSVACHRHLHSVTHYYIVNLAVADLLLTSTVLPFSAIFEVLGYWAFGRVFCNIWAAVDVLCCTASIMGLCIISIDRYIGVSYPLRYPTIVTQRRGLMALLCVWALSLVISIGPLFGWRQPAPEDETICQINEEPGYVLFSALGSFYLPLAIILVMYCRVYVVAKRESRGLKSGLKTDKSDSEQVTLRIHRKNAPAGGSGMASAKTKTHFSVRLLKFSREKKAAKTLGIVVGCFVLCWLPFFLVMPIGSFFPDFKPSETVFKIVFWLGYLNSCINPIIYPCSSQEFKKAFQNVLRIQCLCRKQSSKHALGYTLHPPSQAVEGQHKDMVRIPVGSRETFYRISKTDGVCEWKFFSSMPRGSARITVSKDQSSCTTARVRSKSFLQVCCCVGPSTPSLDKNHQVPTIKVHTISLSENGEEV
The assay can be described thus: Test Case 4-A: human α1A-adrenergic receptor agonist activity (HEK293, Ca flux, Fura-2). Also noted: expressed in transfected cells; host or cells: HEK293 cells, pcDNA3.1. Conditions: for Emax: HEK293, read-out: α1A receptor I.A.; for α1A receptor I.A. / EC50: Test Case 4-A, Table 4; for α1A receptor I.A.: maximum response of norepinephrine = 100%; for EC50: HEK293 cells, Ca flux. In kind it is cell-based. As for the experimental part: Measurement of Human α1A-Adrenergic Receptor Agonist Activity
The human α1A-adrenergic receptor agonist activity is measured using HEK293 cells transfected by a human α1A gene inserted in pcDNA3.1 (Invitrogen). […] After loading for 30 minutes in a CO2 incubator, the excess Fura-2AM is removed by washing twice with assay buffer. After preparing the centrifuged cells to make 5×10^6 cells/mL by assay buffer, 80 μL/well is dispensed into 96-well UV plates (made by Corning) to make cell plates. Sample plates with the test compound diluted 10-fold by assay buffer from 10^−5 to 10^−12 M and cell plates are set in an FDSS4000 (made by Hamamatsu Photonics). After preincubating for 180 seconds, measurement of fluorescence intensity (excitation wavelength 340 nm, 380 nm, measurement wavelength 500 nm) is begun at 2-second intervals. After approximately 30 seconds of measurement, 20 μL of test sample from a sample plate is added to the cell plate, and measurement is continued for another 270 seconds. The Ca flux caused by the test compound is calculated taking the difference in the maximum value of the fluorescence intensity ratio at 340 nm and 380 nm after adding the test compound and the fluorescence intensity ratio before adding the test compound as the peak height.

Assay [2] has as its target T2, human β3-adrenergic receptor (Homo sapiens, UniProt P13945).
T2 construct: A full-length human β3 gene is obtained from a human genomic library (made by Clontech) using this as the probe; expressed in transfected cells; host or cells: CHO (Chinese hamster ovary) cells, pcDNA3
The assay can be described thus: Test Case 1-B: human β3-adrenergic receptor agonist activity (cAMP-Screen, 96-well). It is filed as cell-based. As to conditions: for Emax: 0.5 h, read-out: β3 receptor I.A.; for EC50 / β3 receptor I.A.: Test Case 1-B; for EC50: CHO cells, cAMP; for β3 receptor I.A.: maximum response of isoproterenol = 100%. As for the experimental part: Measurement of Human β3-Adrenergic Receptor Agonist Activity
The human β3-adrenergic receptor agonist activity is measured using CHO (Chinese hamster ovary) cells transfected by a human β3 gene inserted in pcDNA3 (Invitrogen). […] A full-length human β3 gene is obtained from a human genomic library (made by Clontech) using this as the probe. These cells are cultured in Ham's F-12 medium containing 10% fetal calf serum and 400 μg/mL genectin (Invitrogen). These cells are sown in 96-well plates to make 2×10^4 cells/well. After culturing for approximately 20 hours, they are allowed to stand for 15 minutes in 80 μL of serum-free Ham's F-12 medium. After first dissolving the test compound by DMSO, it is serially diluted by Ham's F-12 containing 100 mmol/L HEPES and 1 mmol/L isobutylmethylxanthine, and 20 μL is added to the cells. After culturing for 30 minutes, the medium is removed, and 0.1 mL of the assay/lysis buffer contained in the cAMP-Screen kit (made by Applied Bioscience) is added and incubated for 30 minutes at 37° C. The cAMP in this cell lysate is assayed by the above cAMP-Screen kit.

T2 sequence (P13945 whole entry): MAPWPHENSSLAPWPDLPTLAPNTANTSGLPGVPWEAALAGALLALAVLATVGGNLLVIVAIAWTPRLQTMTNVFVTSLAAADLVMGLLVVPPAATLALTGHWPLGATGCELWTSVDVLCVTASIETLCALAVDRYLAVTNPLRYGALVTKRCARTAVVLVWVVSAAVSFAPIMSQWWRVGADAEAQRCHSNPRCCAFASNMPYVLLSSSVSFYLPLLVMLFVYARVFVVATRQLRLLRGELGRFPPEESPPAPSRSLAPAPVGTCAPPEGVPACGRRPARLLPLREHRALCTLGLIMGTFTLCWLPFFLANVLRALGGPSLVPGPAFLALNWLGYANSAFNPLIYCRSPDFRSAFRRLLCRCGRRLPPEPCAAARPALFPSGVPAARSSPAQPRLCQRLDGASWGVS

As usually defined, the EC50 is the midpoint of the concentration-response curve. A lower EC50 goes with a more potent agent. Consider `CCc1n[nH]c2cc(OCCNC[C@H](O)c3cccc(NS(=O)(=O)CC(F)(F)F)c3)ccc12` [ex125, (R)-N-(3-(2-(2-(3-ethylindazol-6-yloxy)ethylamino)-1-hydroxyethyl)phenyl)-2,2,2-trifluoro ? sulfonamide], for which the Emax in assay [1] stood at 15%; in assay [2] it was 34%. The midpoint of the response in assay [2], the EC50, lay at 14 nM.

Take `CCc1n[nH]c2cc(OCCNC[C@H](O)c3cccc(NS(=O)(=O)c4ccsc4)c3)ccc12` [ex123, (R)-N-(3-(2-(2-(3-ethylindazol-6-yloxy)ethylamino)-1-hydroxyethyl)phenyl) thiophene-3-sulfonamide]: the values for the Emax in assay [1] and in assay [2] were 0% and 50%, respectively. Moreover, the concentration giving a half-maximal response (EC50) in assay [2] worked out at 0.67 nM.

For the compound `COc1cccc(S(=O)(=O)Nc2cccc([C@@H](O)CNCCOc3ccc4c(OC)n[nH]c4c3)c2)c1` [ex15, (R)-N-(3-(1-hydroxy-2-(2-(3-methoxyindazol-6-yloxy)ethylamino)ethyl)phenyl)-3-methoxy-b ? sulfonamide], in assay [1], the “α1A receptor I.A.” value was found to be 0%.

`CCc1n[nH]c2cc(OCCNC[C@H](O)c3cccc(NS(=O)(=O)c4cccc(Cl)c4)c3)ccc12` [ex119, (R)-3-chloro-N-(3-(2-(2-(3-ethylindazol-6-yloxy)-ethylamino)-1-hydroxyethyl)-phenyl) benzenesulfonamide]: the Emax in assay [1] is 0%. Further, in assay [2], the Emax came out at 47% and the EC50 came to 23 nM.

As to `COc1n[nH]c2cc(OCCNC[C@H](O)c3cccc(NS(=O)(=O)C4CCC4)c3)ccc12` [ex38, (R)-N-(3-(1-hydroxy-2-(2-(3-methoxyindazol-6-yloxy)-ethylamino)ethyl)phenyl)cyclo-butanesulfonamide], in assay [1], the Emax stood at 75% and the midpoint of the response, the EC50, lay at 378 nM. Further, in assay [2], the Emax is 89% and the EC50 is 31 nM.

Regarding `Cc1n[nH]c2cc(OCCNC[C@H](O)c3cccc(NS(=O)(=O)c4cn(C)cn4)c3)ccc12` [ex50, (R)-N-(3-(1-hydroxy-2-(2-(3-methylindazol-6-yloxy)ethylamino)ethyl)phenyl)-1-methylimidazole-4-sulfonamide], the Emax in assay [1] turned out to be 0%; in assay [2] it was 18%.

For “(R)-N-(3-(1-hydroxy-2- (2-(3-methoxyindazol- 6-yloxy)-ethylamino) ethyl)phenyl)- ? benzenesulfonamide [ex40]”, in assay [2], the “β3 receptor I.A.” value was 50%.

`Cn1cc(S(=O)(=O)Nc2cccc([C@@H](O)CNCCOc3ccc4c(C5CC5)n[nH]c4c3)c2)cn1` [ex225, (R)-N-(3-(2-(2-(3-cyclopropylindazol-6-yloxy)ethylamino)-1-hydroxyethyl)phenyl)-1-methyl-pyrazole-4-sul-fonamide]: in assay [1], the Emax was found to be 41% and it took 981 nM to reach a half-maximal effect (EC50). In assay [2], the Emax worked out at 91% and the midpoint of the response, the EC50, lay at 5.7 nM.

For the compound `Nc1cccc(S(=O)(=O)Nc2cc([C@@H](O)CNCCOc3ccc4c(C(F)(F)F)n[nH]c4c3)ccc2Cl)c1` [ex183, (R)-3-amino-N-(2-chloro-5-(1-hydroxy-2-(2-(3-(trifluoro-methyl)-indazol-6-yloxy)ethylamino)ethyl)phenyl)ben-zenesulfonamide], in assay [2], the “β3 receptor I.A.” value worked out at 72%.

Consider `O=S(=O)(Nc1cccc([C@@H](O)CNCCOc2ccc3c(CO)n[nH]c3c2)c1)C1CCC1` [ex243, (R)—N-(3-(1-hydroxy-2-(2-(3-(hydroxymethyl)indazole-6-yloxy)ethylamino)ethyl)phenyl)cyclobutanesulfonamide], for which, in assay [1], the Emax turned out to be 89% and a half-maximal response (EC50) required 44 nM. In assay [2], the Emax came out at 72% and the EC50 is 72 nM.

On to `O=S(=O)(Nc1cccc([C@@H](O)CNCCOc2ccc3c(C(F)(F)F)n[nH]c3c2)c1)C1CCC1` [ex210, (R)-N-(3-(1-hydroxy-2-(2-(3-(trifluoro-methyl)-indazol-6-yloxy)ethylamino)ethyl)phenyl)cyclo-clobutanesulfonamide], for which the Emax stood at 54% in assay [1] and 86% in assay [2]. Moreover, the EC50 in assay [1] is 1700 nM; in assay [2], 17 nM.

Take `CCc1n[nH]c2cc(OCCNC[C@H](O)c3cccc(NS(=O)(=O)c4cccs4)c3)ccc12` [ex122, (R)-N-(3-(2-(2-(3-ethylindazol-6-yloxy)ethylamino)-1-hydroxyethyl)phenyl) thiophene-2-sulfonamide]: the Emax in assay [1] was 0%. Moreover, in assay [2], the Emax is 59% and the EC50 was 0.91 nM.

Take `Cc1n[nH]c2cc(OCCNC[C@H](O)c3cccc(NS(=O)(=O)c4c(F)cccc4F)c3)ccc12` [ex69, (R)-2,6-difluoro-N-(3-(1-hydroxy-2-(2-(3-methylindazol-6-yloxy)ethylamino)ethyl)phenyl) benzenesulfonamide]: in assay [2], the Emax stood at 72% and a half-maximal response (EC50) required 594 nM.

For `Cc1n[nH]c2cc(OCCNC[C@H](O)c3cccc(NS(=O)(=O)c4cccc(OC(F)F)c4)c3)ccc12` [ex66, (R)-3-(difluoro-methoxy)-N-(3-(1-hydroxy-2-(2-(3-methylindazol-6-yloxy)ethylamino)ethyl)phenyl) benzenesulfonamide], in assay [2], the Emax turned out to be 88% and a half-maximal response (EC50) required 291 nM.

For `CCc1n[nH]c2cc(OCCNC[C@H](O)c3cccc(NS(=O)(=O)C4CCC4)c3)ccc12` [ex150], the Emax in assay [1] amounted to 61%; in assay [2], 85%. For the same compound, the EC50 in assay [1] was 1280 nM; in assay [2] it was 5.4 nM.

Take `Cc1n[nH]c2cc(OCCNC[C@H](O)c3cccc(NS(=O)(=O)c4cccc(C(F)(F)F)c4)c3)ccc12` [ex65, (R)-N-(3-(1-hydroxy-2-(2-(3-methylindazol-6-yloxy)ethylamino)ethyl)phenyl)-3-(trifluoromethyl)-benzenesulfonamide]: in assay [2], the Emax was determined as 65% and the EC50 came out at 579 nM.

On to `O=S(=O)(Nc1cccc([C@@H](O)CNCCOc2ccc3c(Cl)n[nH]c3c2)c1)C1CCC1` [ex179, (R)-N-(3-(2-(2-(3-chloroindazol-6-yloxy)ethylamino)-1-hydroxyethyl)phenyl)-cyclobutanesul-fonamide], for which the Emax in assay [1] stood at 26%; in assay [2], 93%. Moreover, the EC50 in assay [1] was 436 nM; in assay [2] it was 17 nM.

For `O=S(=O)(Nc1cccc([C@@H](O)CNCCOc2ccc3c(C4CC4)n[nH]c3c2)c1)C1CC1` [ex227, (R)-N-(3-(2-(2-(3-cyclopropylindazol-6-yloxy)ethylamino)-1-hydroxyethyl)phenyl)-cyclopropane-sulfonamide], the “α1A receptor I.A.” value in assay [1] turned out to be 1%. Moreover, in assay [2], the midpoint of the response, the EC50, lay at 31 nM and the “β3 receptor I.A.” value came out at 65%.

As to `COc1cccc(S(=O)(=O)Nc2cccc([C@@H](O)CNCCOc3ccc4c(OC)n[nH]c4c3)c2)c1` [ex14, (R)-N-(3-(1-hydroxy-2-(2-(3-methoxyindazol-6-yloxy)ethylamino)ethyl)phenyl)-3-methoxy-b ? sulfonamide], the Emax in assay [1] turned out to be 0%.

Consider `Cc1n[nH]c2cc(OCCNC[C@H](O)c3cccc(NS(=O)(=O)c4cc(F)c(F)c(F)c4)c3)ccc12` [ex77, (R)-3,4,5-trifluoro-N-(3-(1-hydroxy-2-(2-(3-methylindazol-6-yloxy)ethylamino)ethyl)phenyl) benzenesulfonamide], for which the “β3 receptor I.A.” value in assay [2] was found to be 59%.

For the compound `Cc1n[nH]c2cc(OCCNC[C@H](O)c3cccc(NS(=O)(=O)c4ccccn4)c3)ccc12` [ex64, (R)-N-(3-(1-hydroxy-2-(2-(3-methylindazol-6-yloxy)ethylamino)ethyl)phenyl)pyridine-2-sulfonamide], in assay [2], the Emax was 65% and the EC50 amounted to 208 nM.
